Test results: the supplement of paper PMC10307832

Tests used:
Experiment in all cases: relative viability (nuclei count vs DMSO), 5 days (fraction); higher = more cells survive
[1] = system: NCI-H2009
Summary of the method: (§1)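 Lung cancer cell lines were seeded in 1536-well plates and dosed by pin tool the next day, with either a single drug or a fixed anchor-drug dose combined with five library-drug doses (not always all listed) spaced in √10 steps. Five days later, one step fixed the cells and stained their nuclei (final 0.05% Triton X-100, 1% formaldehyde, 1 ug/ml Hoechst), and nuclei were counted on 4× images. Relative viability is the nuclei count in treated wells divided by the count in vehicle wells, and each value is the median of duplicate plates.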

[2] = system: NCI-H1993
Summary of the method: as §1

[3] = system: SK-MES-1
Summary of the method: as §1

[4] = system: NCI-H2170
Summary of the method: as §1

[5] = system: NCI-H1355
Summary of the method: as §1

[6] = system: NCI-H647
Summary of the method: as §1

[7] = system: NCI-H2228
Summary of the method: as §1

[8] = system: NCI-H1793
Summary of the method: as §1

[9] = system: COR-L23
Summary of the method: as §1

[10] = system: COR-L 105
Summary of the method: as §1

[11] = system: NCI-H1755
Summary of the method: as §1

[12] = system: EKVX
Summary of the method: as §1

[13] = system: UMC-11
Summary of the method: as §1

[14] = system: NCI-H322M
Summary of the method: as §1

[15] = system: NCI-H2347
Summary of the method: as §1

[16] = system: HOP-62
Summary of the method: as §1

[17] = system: NCI-H838
Summary of the method: as §1

[18] = system: PC-14
Summary of the method: as §1

[19] = system: HARA
Summary of the method: as §1

[20] = system: NCI-H1734
Summary of the method: as §1

[21] = system: NCI-H1395
Summary of the method: as §1

SMILES: Clc1ccc(Nc2nnc(Cc3ccncc3)c3ccccc23)cc1 [Vatalanib] + CC1(C)CCC(c2ccc(Cl)cc2)=C(CN2CCN(c3ccc(C(=O)NS(=O)(=O)c4ccc(N[C@H](CCN5CCOCC5)CSc5ccccc5)c(S(=O)(=O)C(F)(F)F)c4)cc3)CC2)C1 [Navitoclax] (partner 0.5 µM)
- relative viability ([1]; first compound 0.04 µM): 1.18
- relative viability ([1]; first compound 0.1265 µM): 1.09
- relative viability ([1]; first compound 0.4 µM): 1.24
- relative viability ([1]; first compound 1.265 µM): 1.12
- relative viability ([1]; first compound 4 µM): 1.13
- relative viability ([2]; first compound 0.04 µM): 0.894
- relative viability ([2]; first compound 0.1265 µM): 0.935
- relative viability ([2]; first compound 0.4 µM): 0.826
- relative viability ([2]; first compound 1.265 µM): 0.789
- relative viability ([2]; first compound 4 µM): 0.63
- relative viability ([3]; first compound 0.04 µM): 1.2
- relative viability ([3]; first compound 0.1265 µM): 1.21
- relative viability ([3]; first compound 0.4 µM): 1.28
- relative viability ([3]; first compound 1.265 µM): 1.01
- relative viability ([3]; first compound 4 µM): 1.15
- relative viability ([4]; first compound 0.04 µM): 0.584
- relative viability ([4]; first compound 0.1265 µM): 0.674
- relative viability ([4]; first compound 0.4 µM): 0.621
- relative viability ([4]; first compound 1.265 µM): 0.51
- relative viability ([4]; first compound 4 µM): 0.589
- relative viability ([5]; first compound 0.04 µM): 0.962
- relative viability ([5]; first compound 0.1265 µM): 0.927
- relative viability ([5]; first compound 0.4 µM): 1.01
- relative viability ([5]; first compound 1.265 µM): 0.875
- relative viability ([5]; first compound 4 µM): 0.917
- relative viability ([6]; first compound 0.04 µM): 1.08
- relative viability ([6]; first compound 0.1265 µM): 1.01
- relative viability ([6]; first compound 1.265 µM): 1.05
- relative viability ([6]; first compound 4 µM): 0.957
- relative viability ([7]; first compound 0.04 µM): 0.845
- relative viability ([7]; first compound 0.1265 µM): 0.92
- relative viability ([7]; first compound 0.4 µM): 1.1
- relative viability ([7]; first compound 1.265 µM): 0.755
- relative viability ([7]; first compound 4 µM): 0.83
- relative viability ([8]; first compound 0.04 µM): 0.452
- relative viability ([8]; first compound 0.1265 µM): 0.435
- relative viability ([8]; first compound 0.4 µM): 0.498
- relative viability ([8]; first compound 1.265 µM): 0.318
- relative viability ([8]; first compound 4 µM): 0.502
- relative viability ([9]; first compound 0.04 µM): 1.1
- relative viability ([9]; first compound 0.1265 µM): 0.972
- relative viability ([9]; first compound 0.4 µM): 1.24
- relative viability ([9]; first compound 1.265 µM): 0.778
- relative viability ([9]; first compound 4 µM): 1.01
- relative viability ([10]; first compound 0.04 µM): 1.47
- relative viability ([10]; first compound 0.1265 µM): 0.928
- relative viability ([10]; first compound 0.4 µM): 0.692
- relative viability ([10]; first compound 1.265 µM): 0.766
- relative viability ([10]; first compound 4 µM): 0.715
- relative viability ([11]; first compound 0.04 µM): 1.06
- relative viability ([11]; first compound 0.1265 µM): 0.972
- relative viability ([11]; first compound 0.4 µM): 1.03
- relative viability ([11]; first compound 1.265 µM): 0.821
- relative viability ([11]; first compound 4 µM): 0.993
- relative viability ([12]; first compound 0.04 µM): 0.924
- relative viability ([12]; first compound 0.1265 µM): 0.928
- relative viability ([12]; first compound 0.4 µM): 1
- relative viability ([12]; first compound 1.265 µM): 0.839
- relative viability ([12]; first compound 4 µM): 0.891
- relative viability ([13]; first compound 0.04 µM): 0.274
- relative viability ([13]; first compound 0.1265 µM): 0.367
- relative viability ([13]; first compound 0.4 µM): 0.303
- relative viability ([13]; first compound 1.265 µM): 0.29
- relative viability ([13]; first compound 4 µM): 0.322
- relative viability ([14]; first compound 0.04 µM): 1.22
- relative viability ([14]; first compound 0.1265 µM): 1.21
- relative viability ([14]; first compound 0.4 µM): 1.27
- relative viability ([14]; first compound 1.265 µM): 1.14
- relative viability ([14]; first compound 4 µM): 1.09
- relative viability ([15]; first compound 0.04 µM): 0.861
- relative viability ([15]; first compound 0.1265 µM): 0.78
- relative viability ([15]; first compound 0.4 µM): 0.885
- relative viability ([15]; first compound 1.265 µM): 0.739
- relative viability ([15]; first compound 4 µM): 0.796
- relative viability ([16]; first compound 0.04 µM): 1.05
- relative viability ([16]; first compound 0.1265 µM): 0.958
- relative viability ([16]; first compound 0.4 µM): 1.07
- relative viability ([16]; first compound 1.265 µM): 0.949
- relative viability ([16]; first compound 4 µM): 1.07
- relative viability ([17]; first compound 0.04 µM): 1.08
- relative viability ([17]; first compound 0.1265 µM): 1.11
- relative viability ([17]; first compound 0.4 µM): 1.19
- relative viability ([17]; first compound 1.265 µM): 1.07
- relative viability ([17]; first compound 4 µM): 1.18
- relative viability ([18]; first compound 0.04 µM): 1.04
- relative viability ([18]; first compound 0.1265 µM): 0.941
- relative viability ([18]; first compound 0.4 µM): 1.07
- relative viability ([18]; first compound 1.265 µM): 1.03
- relative viability ([18]; first compound 4 µM): 0.997
- relative viability ([19]; first compound 0.04 µM): 1.08
- relative viability ([19]; first compound 0.1265 µM): 1.03
- relative viability ([19]; first compound 0.4 µM): 1.18
- relative viability ([19]; first compound 1.265 µM): 1.11
- relative viability ([19]; first compound 4 µM): 1.13
- relative viability ([20]; first compound 0.04 µM): 0.921
- relative viability ([20]; first compound 0.1265 µM): 0.719
- relative viability ([20]; first compound 0.4 µM): 0.927
- relative viability ([20]; first compound 1.265 µM): 0.823
- relative viability ([20]; first compound 4 µM): 0.822
- relative viability ([21]; first compound 0.04 µM): 1.17
- relative viability ([21]; first compound 0.1265 µM): 1.07
- relative viability ([21]; first compound 0.4 µM): 1.37
- relative viability ([21]; first compound 1.265 µM): 1.07
- relative viability ([21]; first compound 4 µM): 1.08
